From ChEMBL document CHEMBL2010711, “Synthesis and comparative evaluation of 4-oxa- and 4-aza-podophyllotoxins as antiproliferative microtubule destabilizing agents” (Bioorg Med Chem Lett, 2012)
Calls of active or inactive are those of the source.

Experiments:
[1] = system: MDA-MB-231; assay: Cytotoxicity against human MDA-MB-231 cells after 48 hrs by trypan blue dye exclusion assay; format: functional; details: MDA-MB-231, 48 h
[2] = system: Malme-3M; assay: Cytotoxicity against human MALME-3M cells after 48 hrs by trypan blue dye exclusion assay; format: functional
[3] = system: NCI-H460; assay: Cytotoxicity against human NCI-H460 cells after 48 hrs by trypan blue dye exclusion assay; format: functional; details: NCI-H460, 48 h
[4] = system: HCC 2998; assay: Cytotoxicity against human HCC2998 cells after 48 hrs by trypan blue dye exclusion assay; format: functional; details: HCC 2998, 48 h
[5] = system: SF-539; assay: Cytotoxicity against human SF539 cells after 48 hrs by trypan blue dye exclusion assay; format: functional; details: SF-539, 48 h
[6] = system: NCI-H226; assay: Cytotoxicity against human NCI-H226 cells after 48 hrs by trypan blue dye exclusion assay; format: functional; details: NCI-H226, 48 h
[7] = system: MCF7; assay: Cytotoxicity against human MCF7 cells after 48 hrs by trypan blue dye exclusion assay; format: functional; details: MCF7, 48 h
[8] = system: MDA-MB-435; assay: Cytotoxicity against human MDA-MB-435 cells after 48 hrs by trypan blue dye exclusion assay; format: functional; details: MDA-MB-435, 48 h
[9] = system: HCT-15; assay: Cytotoxicity against human HCT15 cells after 48 hrs by trypan blue dye exclusion assay; format: functional; details: HCT-15, 48 h
[10] = system: NCI-H322M; assay: Cytotoxicity against human NCI-H322M cells after 48 hrs by trypan blue dye exclusion assay; format: functional
[11] = system: MOLT-4; assay: Cytotoxicity against human MOLT4 cells after 48 hrs by trypan blue dye exclusion assay; format: functional; details: MOLT-4, 48 h
[12] = Cytotoxicity against human Hs 578T cells after 48 hrs by trypan blue dye exclusion assay; format: functional
[13] = system: LOX IMVI; assay: Cytotoxicity against human LOXIMVI cells after 48 hrs by trypan blue dye exclusion assay; format: functional
[14] = system: MDA-MB-468; assay: Cytotoxicity against human MDA-MB-468 cells after 48 hrs by trypan blue dye exclusion assay; format: functional; details: MDA-MB-468, 48 h
[15] = system: 786-0; assay: Cytotoxicity against human 786-0 cells after 48 hrs by trypan blue dye exclusion assay; format: functional; details: 786-0, 48 h
[16] = system: NCI-H522; assay: Cytotoxicity against human NCI-H522 cells after 48 hrs by trypan blue dye exclusion assay; format: functional; details: NCI-H522, 48 h
[17] = system: HT-29; assay: Cytotoxicity against human HT-29 cells after 48 hrs by trypan blue dye exclusion assay; format: functional; details: HT-29, 48 h
[18] = system: SK-MEL-2; assay: Cytotoxicity against human SK-MEL-2 cells after 48 hrs by trypan blue dye exclusion assay; format: functional; details: SK-MEL-2, 48 h
[19] = system: COLO 205; assay: Cytotoxicity against human COLO205 cells after 48 hrs by trypan blue dye exclusion assay; format: functional; details: COLO 205, 48 h
[20] = system: HOP-62; assay: Cytotoxicity against human HOP62 cells after 48 hrs by trypan blue dye exclusion assay; format: functional; details: HOP-62, 48 h
[21] = system: RXF 393; assay: Cytotoxicity against human RXF393 cells after 48 hrs by trypan blue dye exclusion assay; format: functional; details: RXF 393, 48 h
[22] = system: NCI/ADR-RES; assay: Cytotoxicity against human NCI/ADR-RES cells after 48 hrs by trypan blue dye exclusion assay; format: functional
[23] = system: SK-OV-3; assay: Cytotoxicity against human SKOV3 cells after 48 hrs by trypan blue dye exclusion assay; format: functional; details: SK-OV-3, 48 h
[24] = system: OVCAR-5; assay: Cytotoxicity against human OVCAR5 cells after 48 hrs by trypan blue dye exclusion assay; format: functional; details: OVCAR-5, 48 h
[25] = system: SNB-19; assay: Cytotoxicity against human SNB19 cells after 48 hrs by trypan blue dye exclusion assay; format: functional; details: SNB-19, 48 h
[26] = system: OVCAR-4; assay: Cytotoxicity against human OVCAR4 cells after 48 hrs by trypan blue dye exclusion assay; format: functional; details: OVCAR-4, 48 h
[27] = system: U-251; assay: Cytotoxicity against human U251 cells after 48 hrs by trypan blue dye exclusion assay; format: functional; details: U-251, 48 h
[28] = system: KM12; assay: Cytotoxicity against human KM12 cells after 48 hrs by trypan blue dye exclusion assay; format: functional; details: KM12, 48 h
[29] = system: TK-10; assay: Cytotoxicity against human TK10 cells after 48 hrs by trypan blue dye exclusion assay; format: functional; details: TK-10, 48 h
[30] = system: A549; assay: Cytotoxicity against human A549 cells after 48 hrs by trypan blue dye exclusion assay; format: functional; details: A549, 48 h
[31] = system: PC-3; assay: Cytotoxicity against human PC3 cells after 48 hrs by trypan blue dye exclusion assay; format: functional; details: PC-3, 48 h
[32] = system: A498; assay: Cytotoxicity against human A498 cells after 48 hrs by trypan blue dye exclusion assay; format: functional; details: A498, 48 h
[33] = system: UACC-62; assay: Cytotoxicity against human UACC62 cells after 48 hrs by trypan blue dye exclusion assay; format: functional; details: UACC-62, 48 h
[34] = system: SNB-75; assay: Cytotoxicity against human SNB75 cells after 48 hrs by trypan blue dye exclusion assay; format: functional; details: SNB-75, 48 h
[35] = system: HOP-92; assay: Cytotoxicity against human HOP92 cells after 48 hrs by trypan blue dye exclusion assay; format: functional; details: HOP-92, 48 h
[36] = system: ACHN; assay: Cytotoxicity against human ACHN cells after 48 hrs by trypan blue dye exclusion assay; format: functional
[37] = system: IGROV-1; assay: Cytotoxicity against human IGROV1 cells after 48 hrs by trypan blue dye exclusion assay; format: functional; details: IGROV-1, 48 h
[38] = system: SW-620; assay: Cytotoxicity against human SW620 cells after 48 hrs by trypan blue dye exclusion assay; format: functional; details: SW-620, 48 h
[39] = system: CAKI-1; assay: Cytotoxicity against human CAKI-1 cells after 48 hrs by trypan blue dye exclusion assay; format: functional; details: CAKI-1, 48 h
[40] = system: EKVX; assay: Cytotoxicity against human EKVX cells after 48 hrs by trypan blue dye exclusion assay; format: functional
[41] = system: NCI-H23; assay: Cytotoxicity against human NCI-H23 cells after 48 hrs by trypan blue dye exclusion assay; format: functional; details: NCI-H23, 48 h
[42] = system: SR; assay: Cytotoxicity against human SR cells after 48 hrs by trypan blue dye exclusion assay; format: functional
[43] = system: Paracentrotus lividus; assay: Antimitotic activity against Paracentrotus lividus embryo assessed as cleavage arrest at 2 fold less effective threshold concentration after 2.5 to 6 hrs; format: functional, organism-based
[44] = system: DU-145; assay: Cytotoxicity against human DU145 cells after 48 hrs by trypan blue dye exclusion assay; format: functional; details: DU-145, 48 h
[45] = system: SK-MEL-5; assay: Cytotoxicity against human SK-MEL-5 cells after 48 hrs by trypan blue dye exclusion assay; format: functional; details: SK-MEL-5, 48 h
[46] = system: M14; assay: Cytotoxicity against human M14 cells after 48 hrs by trypan blue dye exclusion assay; format: functional; details: M14, 48 h
[47] = system: Paracentrotus lividus; assay: Microtubule destabilizing activity in Paracentrotus lividus embryo assessed as embryo spinning at 2 fold less effective threshold concentration after 15 mins to 20 hrs; format: functional, organism-based
[48] = system: UO-31; assay: Cytotoxicity against human UO31 cells after 48 hrs by trypan blue dye exclusion assay; format: functional; details: UO-31, 48 h
[49] = system: SF-295; assay: Cytotoxicity against human SF295 cells after 48 hrs by trypan blue dye exclusion assay; format: functional; details: SF-295, 48 h
[50] = system: T47D; assay: Cytotoxicity against human T47D cells after 48 hrs by trypan blue dye exclusion assay; format: functional
[51] = system: CCRF-CEM; assay: Cytotoxicity against human CCRF-CEM cells after 48 hrs by trypan blue dye exclusion assay; format: functional
[52] = system: RPMI-8226; assay: Cytotoxicity against human RPMI8226 cells after 48 hrs by trypan blue dye exclusion assay; format: functional; details: RPMI-8226, 48 h
[53] = system: UACC-257; assay: Cytotoxicity against human UACC257 cells after 48 hrs by trypan blue dye exclusion assay; format: functional; details: UACC-257, 48 h
[54] = system: Paracentrotus lividus; assay: Antimitotic activity against Paracentrotus lividus embryo assessed as cleavage alteration at 2 fold less effective threshold concentration after 2.5 to 6 hrs; format: functional, organism-based
[55] = system: K562; assay: Cytotoxicity against human K562 cells after 48 hrs by trypan blue dye exclusion assay; format: functional; details: K562, 48 h
[56] = system: BT-549; assay: Cytotoxicity against human BT549 cells after 48 hrs by trypan blue dye exclusion assay; format: functional; details: BT-549, 48 h
[57] = system: SK-MEL-28; assay: Cytotoxicity against human SK-MEL-28 cells after 48 hrs by trypan blue dye exclusion assay; format: functional; details: SK-MEL-28, 48 h
[58] = system: OVCAR-3; assay: Cytotoxicity against human OVCAR3 cells after 48 hrs by trypan blue dye exclusion assay; format: functional; details: OVCAR-3, 48 h
[59] = system: HL-60(TB); assay: Cytotoxicity against human HL-60(TB) cells after 48 hrs by trypan blue dye exclusion assay; format: functional; details: HL-60, 48 h
[60] = system: HCT-116; assay: Cytotoxicity against human HCT116 cells after 48 hrs by trypan blue dye exclusion assay; format: functional; details: HCT-116, 48 h
[61] = system: OVCAR-8; assay: Cytotoxicity against human OVCAR8 cells after 48 hrs by trypan blue dye exclusion assay; format: functional; details: OVCAR-8, 48 h
[62] = system: SF-268; assay: Cytotoxicity against human SF268 cells after 48 hrs by trypan blue dye exclusion assay; format: functional; details: SF-268, 48 h
[63] = system: SN12C; assay: Cytotoxicity against human SN12C cells after 48 hrs by trypan blue dye exclusion assay; format: functional

## COc1ccc2c(c1)NC1=C(C(=O)OC1)C2c1cc(OC)c2c(c1)OCO2 (stereo not given)
[1]
  GI50: 26.8 nM
[2]
  GI50: > 100000 nM
[3]
  GI50: 22.5 nM
[4]
  GI50: 23.3 nM
[5]
  GI50: < 10 nM
[6]
  GI50: 10.1 nM
[7]
  GI50: < 10 nM
[8]
  GI50: < 10 nM
[9]
  GI50: 28.3 nM
[10]
  GI50: 58.3 nM
[11]
  GI50: 12.9 nM
[12]
  GI50: < 10 nM
[13]
  GI50: < 10 nM
[14]
  GI50: < 10 nM
[15]
  GI50: 24.9 nM
[16]
  GI50: < 10 nM
[17]
  GI50: < 10 nM
[18]
  GI50: 26.3 nM
[19]
  GI50: < 10 nM
  TGI: 26.8 nM
[20]
  GI50: 12.1 nM
[21]
  GI50: < 10 nM
[22]
  GI50: < 10 nM
[23]
  GI50: 14.6 nM
[24]
  GI50: 81.7 nM
[25]
  GI50: 49.9 nM
[26]
  GI50: 19.5 nM
[27]
  GI50: 16.8 nM
[28]
  GI50: < 10 nM
[29]
  GI50: 60.7 nM
[30]
  GI50: 14.6 nM
[31]
  GI50: 19.9 nM
[32]
  GI50: < 10 nM
[33]
  GI50: < 10 nM
[34]
  GI50: 42.6 nM
[35]
  GI50: 86.2 nM
[36]
  GI50: 56.7 nM
[37]
  GI50: 25 nM
[38]
  GI50: < 10 nM
[39]
  GI50: 50.2 nM
[40]
  GI50: < 10 nM
[41]
  GI50: 20.2 nM
[42]
  GI50: < 10 nM
[43]
  Activity: inactive
[44]
  GI50: 19 nM
[45]
  GI50: 10.8 nM
[46]
  GI50: 13.2 nM
[47]
  Activity: inactive
[48]
  GI50: 30 nM
[49]
  GI50: < 10 nM
[50]
  GI50: > 100000 nM
[51]
  GI50: < 10 nM
[52]
  GI50: < 10 nM
[53]
  GI50: 51.2 nM
[54]
  Activity: inactive
[55]
  GI50: < 10 nM
[56]
  GI50: 46 nM
[57]
  GI50: 56.4 nM
[58]
  GI50: < 10 nM
  TGI: 12.2 nM
[59]
  GI50: 20.9 nM
[60]
  GI50: < 10 nM
[61]
  GI50: < 10 nM
[62]
  GI50: < 10 nM
[63]
  GI50: 19.9 nM
